Experimental findings from patent US20250296942A1, “Phosphonate-Based Coordination Complexes and Methods of Preparation and Use Thereof” (University of Puerto Rico, priority 2021, published 2025) are described below.

Some results are limits rather than exact numbers.

For the test, the system named is human osteoblast hFOB 1.19 cell line. In words: AlamarBlue cytotoxicity, BPBPA series, hFOB 1.19. It counts as cell-based. The following applies: for IC50: Homo sapiens, Osteoblast. The procedure: Cell culture methods. MCF-7, MDA-MB-231, and hFOB 1.19 cell lines were incubated employing DMEM (37° C.) and DMEM: F12 (34° C.) medium, respectively, in a 5% CO2. Cell lines were supplemented using 10% FBS and 1% Pen-Strep and medium exchange was performed twice a week. Cell passages were carried out at 80% confluency.
Cell-based assays. Cell lines were seeded in 96 well plates at a density of 5×10^3 cells/mL, cells were incubated for 24 h before treatment. Both cell lines were treated with 100 μL of BPBPA (0-400 μM), LET (0-200 μM), unloaded and loaded nano-Ca@BPBPA (0-50 μM). All cell-based assays were performed for 24, 48, and 72 h of treatment. Control groups were treated with media (DMEM or DMEM: F12) supplemented with 1% Pen-Strep. Then, the media was removed and replaced with 100 μL of 10% AlamarBlue® solution. The 96 well plates were incubated for 4 h before measurements. Then, the fluorescence was assessed at 560 nm of excitation and λmax 590 nm of emission. The cell viability (%) was evaluated by contrasting the percentage of live cells of the control groups with the cells treated with BPBPA, LET, unloaded and loaded nano-Ca@BPBPA. The half-maximal inhibitory concentration (IC50) was determined for BPBPA and letrozole employing the dose-response curves (% cell live vs. concentration). The relative cell live (% RCL) was assessed for the unloaded and loaded nano-Ca@BPBPA, utilizing LET as a control group. The IC50 and % RCL were plotted using the GraphPad Prism software vs. 9.3.0.
The cytotoxicity of BPBPA (control), LET (control), nano-Ca@BPBPA (control), and drug-loaded nano-Ca@BPBPA (experimental) was investigated employing the human breast cancer, MCF-7 and MDA-MB-231, and the human osteoblast, hFOB 1.19, cell lines. The human MCF-7 cell line represents an ER-positive breast cancer model with estrogen, progesterone, and glucocorticoid receptors.^1 While, the human MDA-MB-231 cells correspond to a model of ER-negative breast cancer. Both selected cancer cell lines can be implicated in the development and progress of bone metastases in patients.^40,41 The human fetal hFOB 1.19 cells represent a homogeneous osteoblast-like (non-cancerous) model commonly employed to assess osteoblast differentiation.^42 The cytotoxicity of these materials was evaluated by determining the IC50 and % RCL. […] Similar results were found for MDA-MB-231 and hFOB 1.19 cell lines treated with LET (IC50 >200 μM) at the same time points (Supporting Information).
Cell culture methods. MCF-7 and MDA-MB-231 were incubated employing DMEM media at 37° C. in 5% CO2. The hFOB 1.19 cell lines were incubated using DMEM: F12 at 34° C. in 5% CO2. […]
AlamarBlue@assay. […] Then, the fluorescence was assessed at 560 nm of excitation and λmax 590 nm of emission.
A general note: The colour change of resazurin is a common sign of viable cells or microbes.

Consider `N#Cc1ccc(C(c2ccc(C#N)cc2)n2cncn2)cc1` [LET, letrozole], for which, for the setting “12.5 μM, 72 h”, the “% RCL” value is 100±1%. The IC50 by setting is: (24 h) over 200 µM; (48 h) over 200 µM; (72 h) over 200 µM.

In general, IC50 refers to the concentration that inhibits the measured activity by half. Low readings indicate greater potency, high ones weaker potency.
